Source: ChEMBL document CHEMBL3638496, “Pyrazolopyrrolidine derivatives and their use in the treatment of disease” (2015)

What was measured:
CREB-binding protein = CREB-binding protein (Homo sapiens, UniProt Q92793); experiment: AlphaScreen In-Vitro Binding Assay: In order to assess bromodomain selectivity, we set up a binding assay using the bromodomain encoded by the CREBBP gene. Compounds were tested in the CREBBP assay with a similar protocol, however using AlphaScreen (Amplified Luminescent Proximity Homogeneous Assay, Perkin Elmer) as detection readout instead of TR-FRET. The assay was started by stepwise addition of 4.5 uL per well of bromo domain protein (50 mM HEPES, pH 7.5, 0.005% Tween20, 0.02% BSA, 150 mM NaCl, 324 nM His-CREBBP (1081-1197) (custom production at Viva Biotech Ltd.)) and 4.5 uL per well of peptide solution (50 mM HEPES, pH 7.5, 0.005% Tween20, 0.02% BSA, 150 mM NaCl, 120 nM acetyl-histone H4 (AcK 5, 8, 12) (Biosyntan GmbH)). Reactions were incubated at 30 C. for 35 minutes. Subsequently 4.5 uL per well detection mix (50 mM HEPES, pH 7.5, 0.005% Tween20, 0.02% BSA, 150 mM NaCl, 45 ug/ml Ni-chelate acceptor beads, 45 ug/mL streptavidin-donor beads) (Perkin Elmer)) were added.
Chain of CREB-binding protein (Q92793 whole entry, the tested form may be a part): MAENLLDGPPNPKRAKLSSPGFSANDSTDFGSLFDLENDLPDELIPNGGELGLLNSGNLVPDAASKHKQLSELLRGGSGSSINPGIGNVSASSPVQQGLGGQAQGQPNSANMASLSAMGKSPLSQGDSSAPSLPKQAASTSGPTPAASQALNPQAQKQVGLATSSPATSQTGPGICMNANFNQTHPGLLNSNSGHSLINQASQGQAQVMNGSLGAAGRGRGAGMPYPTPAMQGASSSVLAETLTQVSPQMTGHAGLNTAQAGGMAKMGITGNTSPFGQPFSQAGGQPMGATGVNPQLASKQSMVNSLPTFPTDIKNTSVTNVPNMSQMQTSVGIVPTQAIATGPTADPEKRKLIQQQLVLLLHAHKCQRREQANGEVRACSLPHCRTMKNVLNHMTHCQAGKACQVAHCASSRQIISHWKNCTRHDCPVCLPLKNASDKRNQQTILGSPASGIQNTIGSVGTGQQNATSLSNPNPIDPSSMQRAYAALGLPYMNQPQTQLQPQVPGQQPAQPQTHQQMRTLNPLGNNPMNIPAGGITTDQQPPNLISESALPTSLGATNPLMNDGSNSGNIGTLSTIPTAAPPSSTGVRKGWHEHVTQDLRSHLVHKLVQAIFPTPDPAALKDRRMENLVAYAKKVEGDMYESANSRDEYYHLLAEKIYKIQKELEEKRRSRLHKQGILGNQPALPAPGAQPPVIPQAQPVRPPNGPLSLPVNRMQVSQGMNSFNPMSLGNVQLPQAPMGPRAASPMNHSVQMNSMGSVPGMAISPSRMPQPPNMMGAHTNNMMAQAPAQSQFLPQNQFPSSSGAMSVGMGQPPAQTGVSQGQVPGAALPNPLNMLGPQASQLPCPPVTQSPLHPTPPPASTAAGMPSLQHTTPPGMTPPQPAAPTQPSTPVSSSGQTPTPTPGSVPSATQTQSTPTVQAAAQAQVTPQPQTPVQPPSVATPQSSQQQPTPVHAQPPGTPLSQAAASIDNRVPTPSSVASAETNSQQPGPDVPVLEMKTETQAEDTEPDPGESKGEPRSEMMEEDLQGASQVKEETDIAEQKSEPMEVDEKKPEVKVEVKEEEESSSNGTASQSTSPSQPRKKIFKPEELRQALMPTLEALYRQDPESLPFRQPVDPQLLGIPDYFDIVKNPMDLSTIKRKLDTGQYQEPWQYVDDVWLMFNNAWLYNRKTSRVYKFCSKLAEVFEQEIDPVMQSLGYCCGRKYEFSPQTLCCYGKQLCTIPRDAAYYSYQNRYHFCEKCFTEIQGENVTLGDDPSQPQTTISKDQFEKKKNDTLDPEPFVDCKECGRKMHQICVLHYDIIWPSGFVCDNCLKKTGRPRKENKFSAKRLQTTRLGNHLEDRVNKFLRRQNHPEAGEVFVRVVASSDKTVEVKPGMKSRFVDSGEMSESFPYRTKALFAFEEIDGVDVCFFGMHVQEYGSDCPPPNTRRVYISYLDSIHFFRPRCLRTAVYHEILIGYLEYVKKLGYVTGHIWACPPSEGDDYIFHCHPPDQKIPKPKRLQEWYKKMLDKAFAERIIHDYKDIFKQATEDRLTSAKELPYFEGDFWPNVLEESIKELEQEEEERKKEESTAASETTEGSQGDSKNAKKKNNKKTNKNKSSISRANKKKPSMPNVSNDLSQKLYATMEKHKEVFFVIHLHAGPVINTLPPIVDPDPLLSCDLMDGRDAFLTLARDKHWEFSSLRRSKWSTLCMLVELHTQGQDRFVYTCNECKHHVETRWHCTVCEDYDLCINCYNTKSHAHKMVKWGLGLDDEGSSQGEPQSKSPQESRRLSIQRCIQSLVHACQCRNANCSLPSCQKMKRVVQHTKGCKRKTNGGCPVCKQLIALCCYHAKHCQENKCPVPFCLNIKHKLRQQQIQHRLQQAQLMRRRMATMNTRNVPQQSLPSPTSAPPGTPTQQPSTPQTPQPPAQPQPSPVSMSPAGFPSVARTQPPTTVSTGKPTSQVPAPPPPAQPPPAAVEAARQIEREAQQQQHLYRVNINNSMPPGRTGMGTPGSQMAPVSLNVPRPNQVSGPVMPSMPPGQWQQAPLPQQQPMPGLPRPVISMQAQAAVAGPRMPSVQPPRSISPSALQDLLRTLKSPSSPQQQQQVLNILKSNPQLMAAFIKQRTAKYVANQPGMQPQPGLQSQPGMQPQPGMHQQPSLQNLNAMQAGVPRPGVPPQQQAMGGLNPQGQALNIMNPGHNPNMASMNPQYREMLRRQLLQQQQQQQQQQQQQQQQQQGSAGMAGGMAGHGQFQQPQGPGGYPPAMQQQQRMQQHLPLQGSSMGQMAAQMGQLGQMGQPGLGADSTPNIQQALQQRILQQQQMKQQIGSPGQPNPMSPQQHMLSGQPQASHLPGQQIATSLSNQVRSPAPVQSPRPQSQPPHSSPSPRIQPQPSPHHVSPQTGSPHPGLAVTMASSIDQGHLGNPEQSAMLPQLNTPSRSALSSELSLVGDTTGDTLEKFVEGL

[1] = target: Bromodomain-containing protein 2 (Homo sapiens, UniProt P25440); experiment: (§1) TR-FRET In-Vitro Binding Assay: All assays were performed in 384-well microtiter plates. Each assay plate contained 8-point serial dilutions for 40 test compounds, plus 16 high- and 16 low controls. Liquid handling and incubation steps were done on an Innovadyne Nanodrop Express equipped with a robotic arm (Thermo CatX, Perkin Elmer/Caliper Twister II) and an incubator (Liconic STX40, Thermo Cytomat 2C450). The assay plates were prepared by addition of 50 nl per well of compound solution in 90% DMSO HummingBird nanodispenser (Zinsser Analytic). The assay was started by stepwise addition of 4.5 uL per well of bromo domain protein (50 mM HEPES, pH 7.5, 0.005% Tween20, 0.1% BSA, 50 mM NaCl, 45 nM His-Brd2(60-472) or 45 nM His-Brd3(20-477) or 45 nM His-Brd4(44-477) all proteins produced in-house) and 4.5 uL per well of peptide solution (50 mM HEPES, pH 7.5, 0.005% Tween20, 0.1% BSA, 50 mM NaCl, 60 nM acetyl-histone H4 (AcK 5, 8, 12, 16) (Biosyntan GmbH)). Reactions were incubated at 30 C. for 35 minutes.
Chain of Bromodomain-containing protein 2 (P25440 whole entry, the tested form may be a part): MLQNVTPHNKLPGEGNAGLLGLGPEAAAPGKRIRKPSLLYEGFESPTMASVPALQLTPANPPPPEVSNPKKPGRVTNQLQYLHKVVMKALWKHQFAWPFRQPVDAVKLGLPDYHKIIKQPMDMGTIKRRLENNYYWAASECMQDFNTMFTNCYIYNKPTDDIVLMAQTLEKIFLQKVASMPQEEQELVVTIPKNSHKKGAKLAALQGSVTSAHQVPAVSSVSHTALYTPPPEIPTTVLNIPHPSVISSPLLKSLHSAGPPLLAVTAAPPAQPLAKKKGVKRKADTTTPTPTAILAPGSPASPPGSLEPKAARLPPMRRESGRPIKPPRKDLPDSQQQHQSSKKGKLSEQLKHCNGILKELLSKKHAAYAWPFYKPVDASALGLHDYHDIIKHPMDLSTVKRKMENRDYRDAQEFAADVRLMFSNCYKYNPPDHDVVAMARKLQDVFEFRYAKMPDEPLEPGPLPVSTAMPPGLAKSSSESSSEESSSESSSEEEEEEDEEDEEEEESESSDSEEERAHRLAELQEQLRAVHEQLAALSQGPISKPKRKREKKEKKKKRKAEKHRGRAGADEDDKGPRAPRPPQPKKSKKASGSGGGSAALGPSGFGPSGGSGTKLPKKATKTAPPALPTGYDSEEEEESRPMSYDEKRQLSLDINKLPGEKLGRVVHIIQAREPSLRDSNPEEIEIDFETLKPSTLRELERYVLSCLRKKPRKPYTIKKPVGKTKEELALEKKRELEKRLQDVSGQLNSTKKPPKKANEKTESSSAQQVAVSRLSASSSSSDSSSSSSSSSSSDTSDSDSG

[2] = target: Bromodomain-containing protein 3 (Homo sapiens, UniProt Q15059); experiment: as §1
Chain of Bromodomain-containing protein 3 (Q15059 whole entry): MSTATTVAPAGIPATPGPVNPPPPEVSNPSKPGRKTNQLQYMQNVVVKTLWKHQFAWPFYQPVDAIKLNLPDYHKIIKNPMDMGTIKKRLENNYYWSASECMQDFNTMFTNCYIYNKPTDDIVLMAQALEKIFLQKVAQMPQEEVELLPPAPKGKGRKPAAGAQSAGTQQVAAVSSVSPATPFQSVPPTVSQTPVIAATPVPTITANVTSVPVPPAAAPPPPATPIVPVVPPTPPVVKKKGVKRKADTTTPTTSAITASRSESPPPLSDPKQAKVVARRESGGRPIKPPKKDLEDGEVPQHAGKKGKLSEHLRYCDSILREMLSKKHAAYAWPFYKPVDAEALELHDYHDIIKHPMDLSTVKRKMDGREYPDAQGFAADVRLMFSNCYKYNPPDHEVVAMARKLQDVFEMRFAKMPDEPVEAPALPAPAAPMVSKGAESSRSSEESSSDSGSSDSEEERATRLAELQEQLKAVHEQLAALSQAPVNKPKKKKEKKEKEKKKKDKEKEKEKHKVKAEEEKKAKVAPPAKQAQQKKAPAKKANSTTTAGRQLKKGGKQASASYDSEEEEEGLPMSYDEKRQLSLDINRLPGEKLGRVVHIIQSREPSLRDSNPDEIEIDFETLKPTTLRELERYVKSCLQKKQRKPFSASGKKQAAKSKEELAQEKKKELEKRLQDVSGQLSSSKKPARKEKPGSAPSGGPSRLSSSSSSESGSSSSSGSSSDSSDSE

[3] = target: Bromodomain-containing protein 4 (Homo sapiens, UniProt O60885); experiment: as §1

IC50 (CREB-binding protein) [µM]	IC50 [1] [µM]	IC50 [2] [µM]	IC50 [3] [µM]	SMILES
4.8	0.052	0.044	–	CCc1nn(CCOC)c2c1C(c1ccc(Cl)cc1)N(c1cc(C)c(=O)n(C)c1)C2=O (stereo not given)
2.6	0.12	0.06	0.071	Cc1cc(N2C(=O)c3nn(C(C)C)c(C)c3C2c2ccc(Cl)cc2F)cn2c(C)nnc12 (stereo not given)
16	0.13	0.08	0.055	COc1ncccc1-n1nc2c(c1C)C(c1ccc(F)cc1F)N(c1cc(C)c3nnc(C)n3c1)C2=O (stereo not given)
2.8	0.27	0.17	0.19	Cc1[nH]nc2c1C(c1ccc(Cl)cc1F)N(c1cc(C)c(=O)n(C)c1)C2=O (stereo not given)
